Experimental findings from patent EP4793271A1, “NEUROPROTECTIVE AGENT” (National Center of Neurology and Psychiatry, priority 2023, dated 2025) are described below.

The target in assay [1] is T1, nicotinamide phosphoribosyl transferase (NAMPT) (Homo sapiens, UniProt P43490).
T1 construct: purchased Medical & Biological Laboratories Co., Ltd. (MBL)
Put plainly: NAMPT activity measurement (NMN fluorescence detection). The class given is biochemical. The conditions noted are these: NAMPT recombinant protein, 10 µM Nam; for IC50: read-out: Evaluation on NAMPT inhibitory. The method, then: The compound of the present invention was evaluated for the ability to influence the activity of nicotinamide phosphoribosyl transferase (NAMPT) which is an enzyme that metabolizes nicotinamide (Nam), not the target SARM1.
The enzymatic reaction of NAMPT was carried out by adding NAMPT recombinant protein (manufactured by Medical & Biological Laboratories Co., Ltd. (MBL)) to a reaction solution containing the substrate Nam, phosphoribosylpyrophosphate (PRPP), ATP, and the like (composition: […] (pH = 7.4), 2 µM ATP, 0.5 µM PRPP, 0.02% BSA, 2 µM DTT, 1.2 µM MgCl2, and 10 µM Nam). The amount of the reaction product NMN was detected by detecting the fluorescent signal of a fluorescent substance obtained through the reaction of 2-acetylbenzofuran with NMN using SpectraMax M2 (Molecular Devices) (excitation: 421 nm, fluorescence: 480 nm) (Moriya et al, Chemical Communications 2013, 49 11500). The test compound was added at final concentrations of 10 µM, 3 µM, 1 µM, 300 nM, 100 nM, 30 nM, 10 nM, and 3 nM to the NMN synthesis reaction system described above. The NMN-derived fluorescent signal was normalized against a control group and plotted as the function of the test compound concentrations, and the compound was evaluated for its NAMPT inhibitory effect by calculating IC50.
The IC50 value was evaluated as ∘ for ≥1 µM and as Δ for ≥0.1 µM.

Assay [2] has as its system primary cultured cells of mouse fetus-derived dorsal root ganglia (DRGs). Briefly: Suppression of axonal degeneration after axotomy in DRG explant culture. The class given is cell-based. The conditions noted are these: Mus musculus; minimum concentration at which axonal degeneration was suppressed (DI 0.3 or less); 24 hours after axotomy; read-out: Evaluation on protection against degeneration. The method, then:
The compound of the present invention was studied for its protective effect against axonal injury using primary cultured cells of mouse fetus-derived dorsal root ganglia (DRGs).
DRGs were collected from a fetus derived from an ICR mouse (13.5 days of pregnancy). DRGs were cultured using a plate coated by incubation with 0.1 mg/mL poly-L-lysine at 4°C for 24 hours or longer, washing with PBS, and then incubation with 2.5 µg/mL Cultrex Mouse Laminin I at 37°C for 4 to 6 hours.
One of DRGs collected was plated to each well of the coated 24-well plate. The DRG was cultured in a nicotinamide-free medium for neuron (supplemented with 10% FBS, 1 mM glutamine, 50 ng/mL NGF2.5S, and penicillin-streptomycin) for 24 hours at maximum from the start of culture and then cultured in a nicotinamide-free medium for neuron (supplemented with 2% MACS NeuroBrew-21, 50 ng/mL NGF2.5S, 1% Glutamax, 20 µM uridine, 20 µM 5-fluoro-2'-deoxyuridine, and penicillin-streptomycin) for 7 to 8 days.
The nicotinamide-free medium for neuron was prepared so as to have the same constituents as those of the composition published in a previously reported paper (Brewer et al., J. Neuroscience Research 35: 567-576) except for nicotinamide with reference to this composition.
The test compound is dissolved in DMSO and added to cells such that the final concentration of DMSO is 0.1% (1000-fold dilution). 10 mM, 1 mM, 100 µM, 10 µM, 1 µM, and 100 nM samples of the test compound are prepared and added at a 1000-fold dilution to cells.
Axotomy was carried out by scooping out a cell body portion of the cultured DRG with a chip for a micropipette. The test compound was added at the following concentrations (final concentration: 10 µM, 1 µM, 100 nM, 10 nM, 1 nM, and 100 pM) within 30 minutes after axotomy. The compound was evaluated for its protective effect against axonal degeneration by imaging (Leica DMIL microscope, 20× objective lens) the state of neurites 24 hours after axotomy and evaluating the degree of degeneration. The degree of degeneration was quantified using a program uniquely developed using the R language. A degeneration index (DI) was used as an indicator for the degree of degeneration, and the ratio of the area of a fragmented axon to the total area of axons was calculated as defined in the equation of Expression 2. Suppressed axonal degeneration was evaluated when the value of DI was 0.3 or less. The minimum concentration at which axonal degeneration was suppressed was determined for each compound. Degeneratioin index (DI) = (Degenerated axons)/(All axons) [formula]
The axonal protective activity was evaluated as A ≤ 0.01 µM, 0.01 µM < B ≤ 0.1 µM, and 0.1 µM < C ≤ 1 µM depending on the minimum concentration at which axonal degeneration was suppressed.

Another assay deals with T2, hSARM1 (Homo sapiens, UniProt Q6SZW1).
T2 sequence (Q6SZW1 28-724): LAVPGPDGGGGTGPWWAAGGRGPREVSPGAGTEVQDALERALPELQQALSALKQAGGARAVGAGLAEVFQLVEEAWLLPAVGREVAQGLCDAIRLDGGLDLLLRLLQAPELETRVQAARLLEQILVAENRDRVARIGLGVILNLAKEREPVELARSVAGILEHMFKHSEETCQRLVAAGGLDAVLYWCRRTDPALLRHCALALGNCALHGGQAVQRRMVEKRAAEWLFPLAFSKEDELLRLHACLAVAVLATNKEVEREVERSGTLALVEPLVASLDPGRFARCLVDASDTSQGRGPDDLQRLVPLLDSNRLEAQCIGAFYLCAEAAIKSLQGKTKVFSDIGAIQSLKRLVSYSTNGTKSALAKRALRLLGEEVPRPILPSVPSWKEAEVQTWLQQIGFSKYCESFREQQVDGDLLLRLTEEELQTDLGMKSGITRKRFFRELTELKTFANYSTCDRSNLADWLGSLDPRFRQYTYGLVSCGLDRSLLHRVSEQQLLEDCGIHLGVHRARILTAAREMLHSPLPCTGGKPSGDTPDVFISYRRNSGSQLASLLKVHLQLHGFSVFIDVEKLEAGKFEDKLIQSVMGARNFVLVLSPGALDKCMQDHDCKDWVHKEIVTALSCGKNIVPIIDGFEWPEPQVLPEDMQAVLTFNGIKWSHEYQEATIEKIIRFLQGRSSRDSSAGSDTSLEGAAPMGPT
Briefly: Human SARM1 activity measurement in HEK293 cells transiently transfected with ΔN-hSARM1 (PC6 fluorescent probe). The following applies: inhibition rate; compound 30 µM; PC6 50 µM; HEK293 cells expressing ΔN-hSARM1; approximately 48 hours from transfection; read-out: Evaluation on hSARM1 inhibitory. Also noted: expressed in transfected cells; host or cells: HEK293, pcDNA3 expression vector. The class given is cell-based. The protocol:
HEK293 cells cultured in a prepared medium of nicotinamide-free DMEM (Dulbecco's modified Eagle medium) supplemented with 10% FBS (BioSera), a 1% penicillin-streptomycin solution (FUJIFILM Wako Pure Chemical Corp.), 5 μM nicotinamide were inoculated at approximately 50,000 cells/well to a 96-well microplate, and the cells were cultured at 37°C under 5% CO2, transiently transfected on the next day with a pcDNA3 expression vector containing a DNA sequence (SEQ ID NO: 1) deficient in a mitochondrial targeting sequence encoded by an N-terminal 78-base sequence in cDNA encoding human sterile α- and armadillo-motif-containing protein (hSARM1) using PEI MAX(R) reagent (PolySciences Inc.), and forced to express ΔN-hSARM1 (SEQ ID NO: 2). Approximately 8 hours later, PC6, which reacts as a substrate of SARM1-specific base exchange reaction and functions as a fluorescent probe, was added thereto at a final concentration of 50 μM, and intracellular hSARM1 activity was measured (Li et al, eLife 2021 10: e67381). A compound for inhibitory activity evaluation was added at a final concentration of 30 μM at the same time with PC6, while dimethyl sulfoxide (Nacalai Tesque Inc.) was added to samples of a control group at the same time with PC6. The cells were incubated at 37°C under 5% CO2 for approximately 48 hours from transfection, followed by fluorescent signal measurement using SpectraMax M2 (Molecular Devices) (excitation: 405 nm, fluorescence: 525 nm, fluorescence cutoff: 515 nm). Results of this screening are reported as an inhibition rate (%) relative to a negative control defined as follows by using fluorescence intensity measured from a control group without transfection with ΔN-hSARM1 as a background whereas using fluorescence intensity measured from a control group transfected with ΔN-hSARM1 as the negative control. Inhibitory rate (%) = 100-(([…]-Background))/((Signalofthenegativecontrol-Background)) × 100 [formula] The nicotinamide-free medium was prepared so as to have the same composition as that of DMEM having known composition which is generally used in the art except for nicotinamide. […]

Structures are written as SMILES. Bounds are passed on as bounds.

T1 sequence (P43490 whole entry, species assumed): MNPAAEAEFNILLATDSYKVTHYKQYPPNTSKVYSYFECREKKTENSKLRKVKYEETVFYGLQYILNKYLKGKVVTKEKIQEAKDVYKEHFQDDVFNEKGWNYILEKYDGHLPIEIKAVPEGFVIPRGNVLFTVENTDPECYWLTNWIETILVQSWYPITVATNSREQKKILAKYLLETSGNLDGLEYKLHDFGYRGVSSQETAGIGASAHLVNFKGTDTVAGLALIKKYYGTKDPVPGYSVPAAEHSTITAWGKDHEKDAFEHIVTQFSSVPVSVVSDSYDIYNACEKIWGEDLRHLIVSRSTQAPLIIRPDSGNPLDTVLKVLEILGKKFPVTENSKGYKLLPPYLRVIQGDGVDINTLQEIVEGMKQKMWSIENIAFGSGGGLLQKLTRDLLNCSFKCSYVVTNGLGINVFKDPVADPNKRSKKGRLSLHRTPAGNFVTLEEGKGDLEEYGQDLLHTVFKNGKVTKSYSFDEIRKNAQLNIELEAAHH

As for `O=C(NCCCC(NC(=O)c1cccnc1)C(=O)O)c1cccnc1` (stereo not drawn) [compound 49], the “Evaluation on NAMPT inhibitory” value in assay [1] is recorded as “○”.
Take `NCc1cccc(CNC(=O)c2cccnc2)n1` [Compound 148]: the minimal effective concentration in assay [2] was in the range of 0.1 to 1 µM. The “Evaluation on NAMPT inhibitory” value in assay [1] is listed as “○”.
As to `NCCOCCOCCNC(=O)c1cccnc1` [compound 107], the minimal effective concentration in assay [2] was ≤ 0.01 µM. Moreover, the “Evaluation on NAMPT inhibitory” value in assay [1] was “○”.
Turning to `CCNC(=O)C(CCCCNC(=O)c1cccnc1)NC(=O)c1cccnc1` (stereo not drawn) [compound 47], the “Evaluation on NAMPT inhibitory” value in assay [1] was “○”.
In the case of `O=C(NCCCCCCCCOCCOc1ccc([N+](=O)[O-])c2nonc12)c1cccnc1` [compound 5], the minimal effective concentration in assay [2] was ≤ 0.01 µM. The IC50 in assay [1] was ≥ 100 nM.
For `O=C(NCCCCCC1CCN(CCO)CC1)c1cccnc1` [compound 2] the same measures were ≤ 0.01 µM and ≥ 100 nM.
`COC(=O)C(CCCNC(=O)c1cccnc1)NC(=O)c1cccnc1` (stereo not drawn) [compound 48]: the minimal effective concentration in assay [2] is 0.1 to 1 µM. Besides, the “Evaluation on NAMPT inhibitory” value in assay [1] is on record as “○”.
As to `O=C(NCCCCC(NC(=O)c1cccnc1)C(=O)O)c1cccnc1` (stereo not drawn) [compound 45], the “Evaluation on NAMPT inhibitory” value in assay [1] is recorded as “○”.
On the same count and under the same terms, as for `NC(=O)C(CCCCNC(=O)c1cccnc1)NC(=O)c1cccnc1` (stereo not drawn) [compound 46], the entry is “○”; as for `COC(=O)C(CCCCNC(=O)c1cccnc1)NC(=O)c1cccnc1` (stereo not drawn) [compound 44], “○”.
Turning to `O=C(NCc1ccc(NC(=O)c2cccc3ccccc23)nc1)c1cccnc1` [Compound 121], in assay [2], the minimal effective concentration lay within 0.01 to 0.1 µM. For the same compound, the IC50 in assay [1] was ≥ 100 nM.
Take `CCNC(=O)C(CCCNC(=O)c1cccnc1)NC(=O)c1cccnc1` (stereo not drawn) [compound 51]: the “Evaluation on NAMPT inhibitory” value in assay [1] is recorded as “○”.
As for `O=C(Cc1ccccc1C(F)(F)F)Nc1ccc(CNC(=O)c2cccnc2)cn1` [Compound 155], the minimal effective concentration in assay [2] was ≤ 0.01 µM. For the same compound, the inhibition at 30 µM on hSARM1 was > 75%.
On to `O=C(NCc1ccc(NC(=O)C2COC2)cc1)c1cccnc1` [compound 93], for which the minimal effective concentration in assay [2] was in the range of 0.01 to 0.1 µM. Moreover, the inhibition at 30 µM at hSARM1 is > 50%.
The corresponding values for `O=C(/C=C/c1cccnc1)Nc1cccc(OC(=O)/C=C/c2cccnc2)c1` [compound 33] are 0.01 to 0.1 µM and > 75%.
With `O=C(/C=C/c1cccnc1)NCCCOc1ccc(CNC(=O)c2cccnc2)cc1` [compound 53], in assay [2], the minimal effective concentration was ≤ 0.01 µM. Moreover, the inhibition at 30 µM at hSARM1 is > 75%.
Turning to `COCOc1cccc(OCCCNC(=O)/C=C/c2cccnc2)c1` [compound 24], the minimal effective concentration in assay [2] was ≤ 0.01 µM. Moreover, on hSARM1, the inhibition at 30 µM was > 75%.
For `O=C(/C=C/c1cccnc1)NCCCOCCOCCCNC(=O)/C=C/c1cccnc1` [compound 69] the same measures were ≤ 0.01 µM and > 75%.
Consider `O=C(NCc1ccc(NC(=O)C23CC4CC(CC(C4)C2)C3)nc1)c1cccnc1` [Compound 142], for which the minimal effective concentration in assay [2] fell in the range of 0.01 to 0.1 µM. For the same compound, the inhibition at 30 µM on hSARM1 was > 75%.
On to `O=C(Cc1ccc(C(F)(F)F)cc1)Nc1ccc(CNC(=O)c2cccnc2)cn1` [compound 89], for which the minimal effective concentration in assay [2] was ≤ 0.01 µM. The inhibition at 30 µM on hSARM1 is > 75%.
The corresponding values for `C/C(=C\C(=O)NCCCCCCNC(=O)/C=C(\C)c1cccnc1)c1cccnc1` [compound 42] are ≤ 0.01 µM and > 75%.
For `C#CCCOc1ccc(C(=O)NCCCCCCNC(=O)c2cccnc2)cc1` [compound 68] the same measures were ≤ 0.01 µM and > 75%.
For the compound `NC(=O)C(CCCNC(=O)c1cccnc1)NC(=O)c1cccnc1` (stereo not drawn) [compound 50], the “Evaluation on NAMPT inhibitory” value in assay [1] is “○”.
Take `O=C(/C=C/c1ccccc1)NCc1ccc(CNC(=O)c2cccnc2)cc1` [compound 66]: in assay [2], the minimal effective concentration was ≤ 0.01 µM. The inhibition at 30 µM at hSARM1 is > 75%.
On to `O=C(/C=C/c1cccnc1)NCCOCCOc1ccc(CNC(=O)c2cccnc2)cc1` [compound 55], for which, in assay [2], the minimal effective concentration is ≤ 0.01 µM. Moreover, the inhibition at 30 µM on hSARM1 was > 75%.
On to `O=C(CCc1ccc(OC(F)(F)F)cc1)Nc1ccc(CNC(=O)c2cccnc2)cn1` [Compound 170], for which, in assay [2], the minimal effective concentration was ≤ 0.01 µM. The inhibition at 30 µM at hSARM1 was > 75%.
